Test results from ChEMBL document CHEMBL1201862, “PubChem BioAssay data set” (2004).
The source made the active and inactive calls.

Legend:
[1] = target: T1, Protein skinhead-1 (Caenorhabditis elegans, UniProt P34707); format: functional
T1 sequence (P34707 whole entry): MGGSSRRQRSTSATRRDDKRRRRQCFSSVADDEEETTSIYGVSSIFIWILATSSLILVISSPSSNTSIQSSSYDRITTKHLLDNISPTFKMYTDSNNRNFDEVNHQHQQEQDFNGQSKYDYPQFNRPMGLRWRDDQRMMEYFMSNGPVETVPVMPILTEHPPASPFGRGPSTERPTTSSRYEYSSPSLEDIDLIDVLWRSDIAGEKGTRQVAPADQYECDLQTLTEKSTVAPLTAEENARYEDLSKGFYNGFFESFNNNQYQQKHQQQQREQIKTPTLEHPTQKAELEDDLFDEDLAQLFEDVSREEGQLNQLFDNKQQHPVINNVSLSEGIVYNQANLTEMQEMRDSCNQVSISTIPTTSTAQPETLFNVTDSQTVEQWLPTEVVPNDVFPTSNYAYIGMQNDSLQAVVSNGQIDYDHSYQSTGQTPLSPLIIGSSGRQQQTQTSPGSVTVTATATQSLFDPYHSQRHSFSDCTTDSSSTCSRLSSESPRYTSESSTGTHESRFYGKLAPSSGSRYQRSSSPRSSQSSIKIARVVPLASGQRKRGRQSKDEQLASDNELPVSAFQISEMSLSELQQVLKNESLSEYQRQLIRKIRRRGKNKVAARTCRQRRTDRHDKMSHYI

[2] = cells; format: functional
[3] = tested on: H9c2; assay: cells; format: functional, cell-based; settings: Rattus norvegicus, H9c2, Myocardium;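 further: confirmatory concentration-response retest of ultra-high-throughput screening hits for modulation of myocardial damage; cell death induced by hydrogen peroxide oxidative stress; compound pretreatment for 60 min then peroxide exposure for 2 h; potency is for protecting the cells against peroxide damage rather than for killing them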
[4] = target: T2, Leucine aminopeptidase (Plasmodium falciparum 3D7, UniProt Q8IL11); assay: P. falciparum M17LAP inhibitors, primary screen, biochemical, fluorogenic H-Leu-NHMec substrate, 1536-well (AID 1619); format: functional
T2 sequence (Q8IL11 whole entry): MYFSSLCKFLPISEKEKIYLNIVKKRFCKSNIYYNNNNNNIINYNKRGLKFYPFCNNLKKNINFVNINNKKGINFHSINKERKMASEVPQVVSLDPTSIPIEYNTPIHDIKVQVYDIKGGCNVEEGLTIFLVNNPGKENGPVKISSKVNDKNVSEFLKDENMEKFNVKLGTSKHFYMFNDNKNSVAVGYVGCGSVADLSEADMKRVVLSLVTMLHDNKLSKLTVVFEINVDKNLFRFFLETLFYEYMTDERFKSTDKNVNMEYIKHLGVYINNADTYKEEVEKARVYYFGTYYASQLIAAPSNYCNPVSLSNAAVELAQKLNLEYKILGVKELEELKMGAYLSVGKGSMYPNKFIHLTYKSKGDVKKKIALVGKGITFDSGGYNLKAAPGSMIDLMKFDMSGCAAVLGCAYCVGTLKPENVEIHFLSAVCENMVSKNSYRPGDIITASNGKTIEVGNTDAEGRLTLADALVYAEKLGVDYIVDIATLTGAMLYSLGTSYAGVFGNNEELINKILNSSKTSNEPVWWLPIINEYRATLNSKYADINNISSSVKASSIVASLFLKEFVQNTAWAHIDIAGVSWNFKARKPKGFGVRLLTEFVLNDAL

[5] = tested on: H4; assay: Luminescence Cell-Based Dose Response HTS to Identify Activators of 5'UTR Stem-Loop Driven Prion Protein mRNA Translation in H4 Neuroglioblastoma Cells. [Related pubchem assays: 1829 (Project Summary), 1814 (Primary HTS)]; format: functional; settings: Homo sapiens
[6] = Luminescence Cell-Based Dose Confirmation HTS to Identify Activators of 5'UTR Stem-Loop Driven Alpha-Synuclein mRNA Translation in H4 Neuroglioblastoma Cells. [Related pubchem assays: 1829 (Project Summary), 1814 (Primary HTS)]; format: functional
[7] = Luminescence Cell-Based Dose Response HTS to Identify Activators of Luciferase Translation or Activity in H4 […] Cells. [Related pubchem assays: 1829 (Project Summary), 1814 (Primary HTS)]; format: functional
[8] = target: T3, Estrogen receptor (Homo sapiens, UniProt P03372);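 further: potency for inhibiting coactivator peptide recruitment to the receptor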
T3 sequence (P03372 whole entry): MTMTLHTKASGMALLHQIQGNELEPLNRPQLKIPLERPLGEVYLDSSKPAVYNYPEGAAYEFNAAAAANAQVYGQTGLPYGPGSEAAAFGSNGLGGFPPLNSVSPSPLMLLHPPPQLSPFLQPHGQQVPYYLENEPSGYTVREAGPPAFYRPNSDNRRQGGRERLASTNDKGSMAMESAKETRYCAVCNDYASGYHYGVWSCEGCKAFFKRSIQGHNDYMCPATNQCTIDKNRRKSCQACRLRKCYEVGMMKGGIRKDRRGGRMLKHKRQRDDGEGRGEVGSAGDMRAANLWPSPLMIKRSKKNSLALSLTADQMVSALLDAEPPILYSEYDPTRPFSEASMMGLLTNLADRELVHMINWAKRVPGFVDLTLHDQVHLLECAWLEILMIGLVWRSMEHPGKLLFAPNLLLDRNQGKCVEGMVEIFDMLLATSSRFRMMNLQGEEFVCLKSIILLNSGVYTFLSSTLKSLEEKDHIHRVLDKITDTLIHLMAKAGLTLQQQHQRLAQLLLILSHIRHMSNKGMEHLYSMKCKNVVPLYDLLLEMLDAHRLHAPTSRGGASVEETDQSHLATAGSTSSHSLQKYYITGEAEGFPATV

[9] = target: Cytochrome P450 2D6 (Homo sapiens, UniProt P10635);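 further: CYP2D6 member of a cytochrome P450 panel assay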
[10] = tested on: Vero; assay: cells; format: functional; settings: Chlorocebus sabaeus
[11] = target: T4, Fatty acid synthase (Homo sapiens, UniProt P49327); assay: FAS thioesterase domain inhibitors, dose response, biochemical, kinetic fluorescence intensity (AID 624326); format: functional;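 further: rate of fluorescence rise from hydrolysis of a fluorogenic O-methyl fluorescein ester substrate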
[12] = target: T4, Fatty acid synthase; assay: FAS thioesterase domain inhibitors, dose response, biochemical, endpoint fluorescence intensity, uHTS hits (AID 624327); format: functional;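 further: fluorescence from hydrolysis of an O-methyl fluorescein acyl ester substrate by the enzyme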
[13] = intracellular Trypanosoma cruzi inhibitors in host cells – cell-based, plate reader, cherry-pick samples, set 3, dose response (AID 651818); format: functional;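 further: compounds incubated with infected cells for about four days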
[14] = target: Paired box protein Pax-8 (Homo sapiens, UniProt Q06710); assay: inhibitors of PAX8-driven TPO luciferase reporter, dose response, RMG-I cells, cherry-pick (AID 687027); format: functional, cell-based;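 further: luciferase reporter driven by Pax8 target thyroperoxidase promoter measured by SteadyGlo luminescence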
[15] = P. falciparum Dd2 growth inhibitors, dose response, SYBR Green, cherry-picked samples (AID 1159567); format: functional, cell-based

Chain of Paired box protein Pax-8 (Q06710 whole entry): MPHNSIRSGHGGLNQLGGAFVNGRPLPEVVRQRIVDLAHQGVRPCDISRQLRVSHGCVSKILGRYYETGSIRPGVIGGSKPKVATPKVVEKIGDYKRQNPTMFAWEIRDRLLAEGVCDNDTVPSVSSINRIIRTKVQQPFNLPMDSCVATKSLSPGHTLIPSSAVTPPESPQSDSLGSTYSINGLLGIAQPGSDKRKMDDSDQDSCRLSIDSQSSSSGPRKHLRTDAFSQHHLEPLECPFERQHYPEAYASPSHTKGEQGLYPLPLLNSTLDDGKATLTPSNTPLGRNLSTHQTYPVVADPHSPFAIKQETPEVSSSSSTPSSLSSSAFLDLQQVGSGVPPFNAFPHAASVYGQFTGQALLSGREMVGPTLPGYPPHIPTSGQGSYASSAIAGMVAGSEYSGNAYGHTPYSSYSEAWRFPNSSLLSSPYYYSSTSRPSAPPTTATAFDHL
T4 sequence (P49327 whole entry, the tested form may be a part): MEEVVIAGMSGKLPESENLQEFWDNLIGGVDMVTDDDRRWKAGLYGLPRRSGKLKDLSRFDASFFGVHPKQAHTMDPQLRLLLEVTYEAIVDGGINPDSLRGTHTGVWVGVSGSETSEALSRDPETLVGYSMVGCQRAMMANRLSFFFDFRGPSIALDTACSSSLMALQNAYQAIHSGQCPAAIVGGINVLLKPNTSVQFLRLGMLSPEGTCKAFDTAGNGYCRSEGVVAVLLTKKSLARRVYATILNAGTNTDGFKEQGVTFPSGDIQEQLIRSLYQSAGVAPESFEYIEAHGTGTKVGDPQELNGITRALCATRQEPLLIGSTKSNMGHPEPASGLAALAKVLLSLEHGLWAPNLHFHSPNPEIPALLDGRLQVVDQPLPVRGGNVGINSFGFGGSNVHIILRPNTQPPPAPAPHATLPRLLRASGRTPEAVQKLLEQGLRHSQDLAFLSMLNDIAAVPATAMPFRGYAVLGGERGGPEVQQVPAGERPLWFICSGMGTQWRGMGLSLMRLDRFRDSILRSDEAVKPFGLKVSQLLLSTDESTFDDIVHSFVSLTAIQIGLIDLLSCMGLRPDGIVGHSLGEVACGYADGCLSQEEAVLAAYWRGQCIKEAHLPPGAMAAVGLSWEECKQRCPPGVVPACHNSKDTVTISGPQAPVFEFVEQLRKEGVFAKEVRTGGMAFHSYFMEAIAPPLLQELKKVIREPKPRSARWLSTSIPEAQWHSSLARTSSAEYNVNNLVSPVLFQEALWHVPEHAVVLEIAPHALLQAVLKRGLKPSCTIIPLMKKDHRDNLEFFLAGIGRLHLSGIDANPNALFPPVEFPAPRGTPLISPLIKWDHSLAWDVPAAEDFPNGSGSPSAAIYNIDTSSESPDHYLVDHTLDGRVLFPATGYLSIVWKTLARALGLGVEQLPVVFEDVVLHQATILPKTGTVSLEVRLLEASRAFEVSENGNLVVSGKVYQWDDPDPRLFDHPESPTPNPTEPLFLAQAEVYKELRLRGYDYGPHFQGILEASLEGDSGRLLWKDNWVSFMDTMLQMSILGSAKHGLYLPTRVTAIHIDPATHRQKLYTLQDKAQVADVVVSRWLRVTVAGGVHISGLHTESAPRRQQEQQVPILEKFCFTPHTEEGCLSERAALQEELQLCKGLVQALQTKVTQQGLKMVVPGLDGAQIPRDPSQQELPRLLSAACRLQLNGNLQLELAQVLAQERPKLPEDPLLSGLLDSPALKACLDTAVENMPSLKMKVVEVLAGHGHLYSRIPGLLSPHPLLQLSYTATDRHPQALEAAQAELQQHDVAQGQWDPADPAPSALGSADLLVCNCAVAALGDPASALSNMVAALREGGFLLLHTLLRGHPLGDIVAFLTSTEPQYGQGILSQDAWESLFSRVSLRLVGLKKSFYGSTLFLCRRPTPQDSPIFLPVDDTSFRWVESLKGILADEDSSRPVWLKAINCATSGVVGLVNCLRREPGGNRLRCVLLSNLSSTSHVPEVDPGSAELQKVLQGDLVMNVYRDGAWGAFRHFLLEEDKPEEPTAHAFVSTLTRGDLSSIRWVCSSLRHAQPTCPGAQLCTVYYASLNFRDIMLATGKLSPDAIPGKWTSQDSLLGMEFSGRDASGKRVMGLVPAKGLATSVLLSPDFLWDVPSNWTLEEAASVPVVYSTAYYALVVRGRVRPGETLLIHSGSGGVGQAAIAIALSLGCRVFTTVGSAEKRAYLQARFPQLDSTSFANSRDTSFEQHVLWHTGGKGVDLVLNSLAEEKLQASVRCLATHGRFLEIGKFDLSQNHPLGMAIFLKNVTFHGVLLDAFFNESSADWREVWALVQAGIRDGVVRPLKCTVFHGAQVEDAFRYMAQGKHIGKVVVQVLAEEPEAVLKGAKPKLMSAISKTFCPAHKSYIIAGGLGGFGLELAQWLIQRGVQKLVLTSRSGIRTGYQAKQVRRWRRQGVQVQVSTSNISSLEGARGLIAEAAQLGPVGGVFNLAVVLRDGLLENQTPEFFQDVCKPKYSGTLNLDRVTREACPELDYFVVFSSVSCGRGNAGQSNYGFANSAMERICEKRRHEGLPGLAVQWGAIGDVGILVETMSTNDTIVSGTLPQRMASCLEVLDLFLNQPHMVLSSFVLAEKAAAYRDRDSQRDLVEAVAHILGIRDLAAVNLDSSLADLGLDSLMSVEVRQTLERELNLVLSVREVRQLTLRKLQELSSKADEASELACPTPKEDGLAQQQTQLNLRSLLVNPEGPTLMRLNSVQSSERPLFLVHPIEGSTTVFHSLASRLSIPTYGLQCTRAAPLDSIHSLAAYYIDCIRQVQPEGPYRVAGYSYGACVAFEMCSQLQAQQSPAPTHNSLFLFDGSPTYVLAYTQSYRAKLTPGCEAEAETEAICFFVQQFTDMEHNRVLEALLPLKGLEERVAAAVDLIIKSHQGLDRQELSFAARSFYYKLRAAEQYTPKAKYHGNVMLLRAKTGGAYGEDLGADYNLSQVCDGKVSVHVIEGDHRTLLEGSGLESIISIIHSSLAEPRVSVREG
Chain of Cytochrome P450 2D6 (P10635 whole entry): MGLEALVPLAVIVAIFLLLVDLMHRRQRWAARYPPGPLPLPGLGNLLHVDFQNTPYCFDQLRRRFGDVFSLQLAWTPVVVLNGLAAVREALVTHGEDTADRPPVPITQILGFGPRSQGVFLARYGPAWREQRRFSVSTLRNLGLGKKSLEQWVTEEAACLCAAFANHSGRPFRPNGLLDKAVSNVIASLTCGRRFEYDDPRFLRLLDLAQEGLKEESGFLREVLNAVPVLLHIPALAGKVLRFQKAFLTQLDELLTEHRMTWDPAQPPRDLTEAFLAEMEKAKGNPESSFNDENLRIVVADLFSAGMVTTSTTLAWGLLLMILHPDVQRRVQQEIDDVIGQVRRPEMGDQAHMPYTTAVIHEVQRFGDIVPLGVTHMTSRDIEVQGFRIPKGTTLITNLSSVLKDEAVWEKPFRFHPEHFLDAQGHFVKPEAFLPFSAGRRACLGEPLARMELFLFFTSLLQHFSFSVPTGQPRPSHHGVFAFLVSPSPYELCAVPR

O=C(Nc1nccs1)c1ccc2ccccc2n1
IC50 [1]: 21.3 µM (active)

COc1ccc(C(=O)COC(=O)c2ccc(Cl)nc2)c(OC)c1
IC50 [2]: 13.2 µM (active)

O=C1c2ccccc2C(=O)N1CCCCSc1nc2ccccc2c(=O)n1CCCN1CCOCC1
IC50 [3]: 10.1 µM (active)

CCOC(=O)c1cccc(NC(=O)CN2C(=O)C3C4C=CC(C4)C3C2=O)c1 (configuration not stated)
IC50 [4]: 14.2 µM (active)

Cc1cc(N2CCCCC2)ccc1C=C1C(=O)N(C)C(=S)N(C)C1=O
IC50 [4]: 40.9 µM (active)

O=C(Nc1ccccc1C(=O)Nc1ccccc1C(=O)NCc1ccco1)c1ccco1
IC50 [3]: > 79 µM (inactive)

O=C1C(C2=NC(C(=O)O)C3C(=O)N(c4ccccc4)C(=O)C23)=C(O)c2ccccc21 (configuration not stated)
IC50 [4]: 68 µM (active)

CCOC(=O)c1c(C)oc2ccc(NS(=O)(=O)c3ccc(C(=O)O)cc3)cc12
IC50 [4]: 43.9 µM (active)

O=C(Nc1cccc(C(=O)O)c1)/C(=C\c1ccc2c(c1)OCO2)NC(=O)c1ccc(Br)o1
IC50 [4]: 65 µM (active)

N#CCCn1c(SCC(=O)c2c[nH]c3ccccc23)nc2ccccc21
IC50 [3]: > 79 µM (inactive)

COc1cc(/C=C2/C(=N)N3C=CSC3=NC2=O)ccc1OCCCOc1ccccc1C
EC50 [5]: 70.8 µM (active)
EC50 [6]: 5.59 µM (active)
EC50 [7]: 58.3 µM (active)
IC50 [8]: > 50 µM (not active)

Cc1nn(-c2ccccc2)c2sc(C(=O)OCN3C(=O)c4ccccc4C3=O)cc12
IC50 [8]: 9.75 µM (active)

CC1CCCN(C(=O)COC(=O)c2n[nH]c3ccccc23)C1 (configuration not stated)
IC50 [8]: > 50 µM (not active)

CCc1nnc(NC(=O)C(C)Sc2ccccc2)s1 (configuration not stated)
IC50 [4]: 3.57 µM (active)

Cc1sc(NC(=O)c2ccco2)c(C(c2cccnc2)N2CCCC2)c1C (configuration not stated)
IC50 [1]: > 100 µM (inactive)
AC50 [9]: 10 µM (inconclusive)

Cc1cc(C)nc(NN=CC2=C(N3CCOCC3)/C(=C/c3ccc(Cl)cc3)CC2)n1
CC50 [10]: > 25 µM (active)

CN(C)C(=O)CN1C(=O)NC2(CCc3ccccc32)C1=O (configuration not stated)
IC50 [1]: > 100 µM (inactive)

CCOc1ccc(N(CC(=O)N/N=C/c2ccccn2)S(=O)(=O)c2ccc(Cl)cc2)cc1
IC50 [3]: > 79 µM (inactive)
IC50 [11]: 5.79 µM (active)
IC50 [12]: 10.6 µM (active)

COc1ccc(NC(=O)Nc2ccc3c(c2)CC(=O)N([C@H](C)CO)C[C@@H](C)[C@@H](CN(C)Cc2ccc(C(F)(F)F)cc2)O3)cc1
AC50 [13]: 3.52 µM (active)

C[C@@H]1CCCCO[C@H](CN(C)C(=O)Nc2ccc(C(F)(F)F)cc2)[C@@H](C)CN([C@H](C)CO)C(=O)c2cc(NC(=O)Cc3ccccc3)ccc2O1
AC50 [13]: 1.78 µM (active)

C[C@H]1CN([C@@H](C)CO)C(=O)Cc2cc(NC(=O)Nc3ccc(C(F)(F)F)cc3)ccc2O[C@H]1CN(C)CC1CCCCC1
AC50 [13]: 3.6 µM (active)

C[C@@H]1CN([C@H](C)CO)C(=O)Cc2cc(NS(=O)(=O)c3ccccc3)ccc2O[C@@H]1CN(C)S(=O)(=O)c1ccc(Cl)cc1
AC50 [14]: 35.5 µM (active)
AC50 [13]: 2.08 µM (active)

C[C@@H]1CN([C@@H](C)CO)C(=O)Cc2cc(NC(=O)Nc3ccc4c(c3)OCO4)ccc2O[C@@H]1CN(C)Cc1ccc(C(=O)Nc2ccccc2N)cc1
AC50 [13]: 2.38 µM (active)

O=C(Nc1cccc(F)c1)N[C@@H]1CC[C@@H](CCNS(=O)(=O)c2cccc(Cl)c2)O[C@@H]1CO
AC50 [14]: 42.7 µM (active)
AC50 [15]: 18.6 µM (active)

CCOc1cc(/C=N/NC(=O)c2ccccn2)ccc1OC(=O)c1cccs1
IC50 [2]: 26.5 µM (active)

COc1ccc2c3c([nH]c2c1)[C@H](CO)N(Cc1cc(F)ccc1F)CC31CCN(C(=O)C2CCC2)CC1
AC50 [15]: 3.36 µM (active)

C[C@H](CO)N1C[C@H](C)[C@@H](CN(C)C(=O)Nc2ccc(F)cc2)Oc2ccc(NC(=O)Nc3ccc(C(F)(F)F)cc3)cc2CC1=O
AC50 [15]: 3.77 µM (active)

CC(=O)N1CC2(C1)[C@@H](c1ccc(-c3cccc(F)c3)cc1)[C@@H](CO)N2CC1CCCC1
AC50 [15]: 6.15 µM (active)

N#Cc1c(-c2ccccc2)cc(-c2ccco2)c(C#N)c1N
IC50 [8]: 33.5 µM (not active)
